Converted amounts (≈) assume the structure as drawn. Where two headings read alike, the source gives them in different places.
Experiments:
[1] = in vitro; assay type: in vitro ADME, mouse; conditions: mouse plasma, 37 °C; read-out: In vitro metabolic stability t1/2 (min) in plasma
Procedure: The mouse plasma was purchased from Charles River and stored at −20 °C. The stock solution of the test compound dissolved in DMSO (50 mM) was prepared and diluted to obtain a working solution at the concentration of 0.2 mM. The working solution of the control compound, i.e. propantheline, was similarly prepared (0.2 mM). Terfenadine (5 ng/mL) and tolbutamide (10 ng/mL) dissolved in acetonitrile were used as two quenching solutions.
The mouse plasma was pre-warmed at 37 °C for 15 min. The working solution of the test/control compound (2 µL) was then added to the mouse plasma (398 µL) in a 96-well plate. Next, 30 µL of the reaction mixture was sampled and moved to 300 µL of quenching solutions at each time point: 0, 5, 15, 30, 60, and 120 min for the control compound and 0, 15, 30, 60, and 120 min for the test compound. When the sampling was done, each sample was centrifuged at 4000 rpm at 4 °C for 15 min. Then, 100 µL of the supernatant was removed and mixed with 100 µL of distilled water for LC-MS/MS analysis with Shimadzu HPLC system and the AB Sciex API 4000 QTRAP instrument. The remaining compound (%) after incubation in plasma versus the incubation time was plotted. The half-life (t1/2) value of the compound was determined via linear regression from the plot.

[2] = molecular target: S. aureus DNA gyrase; conditions: Figure 1; cited from earlier work
[3] = Cytotoxicity, SRB assay, HUVEC; assay type: cell-based, human; conditions: human, HUVEC cells, read-out: CC50 for HUVECs (positive control)
Procedure: (§1) Cytotoxicity in terms of CC50 was determined by the SRB assay according to the protocol described in our previous publication.[16] Briefly, human HUVECs or HepG2 cells were seeded in the wells of 96-well plates at a concentration of 1 × 10^5 cells per well and incubated at 37 °C for 24 h. […] The cells were fixed with 10% trichloroacetic acid (w/v) at 4 °C for 1 h, washed five times with distilled water, and stained with 0.4% SRB solution at room temperature for another 20 min. The cells were then washed five times with 1% acetic acid and air-dried. The protein-bound dye was dissolved in 10 mM Tris-base solution and shaken for 5 min. The optical density (OD) was measured at 540 nm using a microplate reader to estimate the cell viability (%). With the viability values (%) of the cells treated by the compound at different concentrations as input, the CC50 value was determined by the non-linear regression with normalised dose-response fit implemented in GraphPad Prism version 5 software (GraphPad Software Inc., La Jolla, CA). The experiment was performed in duplicate, and paclitaxel was used as the positive drug for this assay.

[4] = Cytotoxicity, SRB assay, HepG2; assay type: cell-based, human; conditions: human, HepG2 cells, read-out: CC50 for HepG2 cells (positive control)
Procedure: as §1

[5] = system: methicillin-sensitive S. aureus (MSSA); test: MIC by broth microdilution, MSSA isolates; assay type: cell-based; conditions: Staphylococcus aureus
Procedure: (§2) All of the bacterial strains used in this study were obtained from the Collection Centre of Pathogen Microorganism of Chinese Academy of Medical Sciences (CAMS-CCPM-A) in China. All of the isolates were stored at −80 °C and streaked on tryptic soy agar (TSA) plates to obtain overnight cultures. The MICs of the test compounds were determined by the broth microdilution method in accordance with the Clinical and Laboratory Standards Institute (CLSI) guidelines.[20] Cation-adjusted Mueller-Hinton broth (CAMHB) was used as the growth medium for MIC assays. Briefly, 100 μL of serially diluted compounds (starting concentrations were 64 μg/mL) in CAMH broth were added to the wells of 96-well microtiter plates. Then, 10 µL of 5 × 10^6 CFU/mL bacterial culture was added to each well. […] The MIC was defined as the lowest concentration of a compound that inhibited visual growth of the bacteria. Vancomycin was set as the positive control for this assay.

[6] = system: MRSA/VISA strains; test: MIC by broth microdilution, MRSA and VISA panel; assay type: cell-based, S. aureus; conditions: Staphylococcus aureus, ATCC 33591 / ATCC 43300 / ATCC 700699 / MRSA / VISA, read-out: MICs for MRSA and VISA strains
Procedure: as §2

[7] = system: vancomycin intermediate resistant S. aureus (VISA); test: MIC by broth microdilution, VISA strains; assay type: cell-based
Procedure: as §2

[8] = system: methicillin-resistant S. aureus (MRSA); test: MIC by broth microdilution, MRSA strains; assay type: cell-based; conditions: Staphylococcus aureus
Procedure: as §2

[9] = Mouse microsomal stability assay; assay type: in vitro ADME; conditions: pH 7.4; mouse liver microsomes, NADPH; read-out: In vitro metabolic stability t1/2 (min) in liver microsomes
Procedure: The mouse liver microsomes were purchased from BioreclamationIVT and stored at −80 °C. The working solutions (0.2 mM) of the control compound, i.e. dextromethorphan, and the test compound dissolved in DMSO were prepared. Terfenadine (5 ng/mL) and tolbutamide (10 ng/mL) dissolved in acetonitrile were used as two quenching solutions. NADPH was dissolved in the phosphate buffer (50 mM K2HPO4, pH 7.4) at 5 mM. The mouse liver microsomes were thawed at 37 °C. The concentration of the stock solution was 20 mg/mL. The working solution (0.629 mg/mL) was prepared by dilution in phosphate buffer.
The working solution of the control/test compound (1.5 µL) was mixed with the liver microsome working solution (238.5 µL) in a 96-well plate and pre-incubated at 37 °C for 5 min. The 5 mM NADPH working solution (60 µL) was added to the solution to initiate the metabolic reaction. At each time point (0, 5, 15, 30, and 60 for the control/test compound), 30 µL of the reaction mixture was sampled and moved to 300 µL of quenching solutions. When the sampling was done, each sample was centrifuged at 4000 rpm at 4 °C for 15 min. The supernatant was analysed with the same HPLC system as the plasma stability assay. The residues (%) of the test/control compound along with the incubation time were calculated based on which the half-life (t1/2) value was determined.

CC(C)[N+](C)(CCOC(=O)C1c2ccccc2Oc2ccccc21)C(C)C [propantheline, reference compound]
half-life at 1 µM [1]: 66.3 min

CCc1[nH]c(C(=O)NC2CCN(c3nnc(C(C)(C)O)s3)CC2OC)nc1Cl (stereo not drawn) [DS-2969b]
S. aureus DNA gyrase IC50 [2]: 0.14 µg/mL

CC(=O)O[C@H]1C(=O)[C@@]2(C)[C@H]([C@H](OC(=O)c3ccccc3)[C@]3(O)C[C@H](OC(=O)[C@H](O)[C@@H](NC(=O)c4ccccc4)c4ccccc4)C(C)=C1C3(C)C)[C@]1(OC(C)=O)CO[C@@H]1C[C@@H]2O [Paclitaxel, reference compound]
CC50 at 72 h [3]: 1.7 nM | CC50 at 72 h [4]: 12.7 nM

CN[C@H](CC(C)C)C(=O)N[C@H]1C(=O)N[C@@H](CC(N)=O)C(=O)N[C@H]2C(=O)N[C@H]3C(=O)N[C@H](C(=O)N[C@H](C(=O)O)c4cc(O)cc(O)c4-c4cc3ccc4O)[C@H](O)c3ccc(c(Cl)c3)Oc3cc2cc(c3O[C@@H]2O[C@H](CO)[C@@H](O)[C@H](O)[C@H]2O[C@H]2C[C@](C)(N)[C@H](O)[C@H](C)O2)Oc2ccc(cc2Cl)[C@H]1O [Vancomycin, reference compound]
MIC ([5]; ATCC 29213 / BAA-1708 / BAA-976 / MSSA, read-out: MIC over the five MSSA isolates, ATCC 29213, 15, 18-3, BAA976, BAA1708, span over isolates): 0.5 to 1 µg/mL (≈ 0.345 to 0.69 µM) | MIC ([5]; ATCC 29213 / MSSA, MSSA ATCC 29213): 1 µg/mL (≈ 0.69 µM) | MIC ([5]; BAA-976 / MSSA, MSSA BAA976): 0.5 µg/mL (≈ 0.345 µM) | MIC ([5]; BAA-1708 / MSSA, MSSA BAA1708): 1 µg/mL (≈ 0.69 µM) | MIC ([5]; MSSA, MSSA 15): 1 µg/mL (≈ 0.69 µM) | MIC ([5]; MSSA, MSSA 18-3): 0.5 µg/mL (≈ 0.345 µM) | MIC [6]: 0.5 to 4 µg/mL (≈ 0.345 to 2.76 µM) | MIC ([7]; Staphylococcus aureus, ATCC 700699 / VISA): 4 µg/mL (≈ 2.76 µM) | MIC ([7]; Staphylococcus aureus, VISA): 4 µg/mL (≈ 2.76 µM) | MIC ([7]; VISA HIP 5827): 4.0 µg/mL (≈ 2.76 µM) | MIC ([8]; ATCC 33591 / MRSA): 2 µg/mL (≈ 1.38 µM) | MIC ([8]; ATCC 43300 / MRSA): 1 µg/mL (≈ 0.69 µM) | MIC ([8]; MRSA): 0.5 µg/mL (≈ 0.345 µM)

COc1ccc2c(c1)[C@]13CCCC[C@@H]1[C@H](C2)N(C)CC3 [dextromethorphan, reference compound]
half-life at 1 µM [9]: 16 min
